# Measurements: patent US20250281507A1, “METHODS OF TREATING NEPHROTIC SYNDROME” (The Research Institute at Nationwide Children's Hospital, priority 2021, published 2025)
# Several values for one entry are separate records, joined by “and”; a condition that tells them apart may be missing. Equal values may be shown once.
# Columns and labels:
# Format in all cases: in vivo, human
# children with NS [1] = assay: Proteinuria (urine protein to creatinine ratio, UPCR) before and after addition of pioglitazone
# Text: (§1) In the following clinical studies, the efficacy and safety of adding pioglitazone to reduce proteinuria in children with NS was examined. All children with NS identified worldwide to have been treated with pioglitazone were included, with no patients excluded. Each patient had pioglitazone added to their other NS medications at the discretion of their treating pediatric nephrologist. All patient records were reviewed in a de-identified manner, with prior ethics committee approval at each institution. Data were analyzed based on defined time periods before and after the addition of pioglitazone. Patients were defined as having responded to pioglitazone (i.e., Responders) if their urine protein to creatinine ratio (UPCR, mg/mg) decreased from the period 0-1 month pre-pioglitazone to the period 0-1 month post-pioglitazone. Glomerular filtration rate estimation (eGFR) in patients <18 years was calculated using the revised Schwartz equation. In patients >18 years, eGFR was calculated as the mean of the revised Schwartz and CKD-EPI creatinine equations. Quantitative data, such as patient age, duration of NS, pioglitazone dosage, and outcomes of UPCR, TIS, and serum albumin, were summarized as means (standard errors of mean), while categorical data such as renal survival status were summarized as frequency (percent). Due to a small sample size, Responders and Non-responders were compared using Wilcoxon Rank Sum tests on quantitative variables and Fisher's exact tests on categorical variables. For both Responders and Non-responders, pre-pioglitazone to post-pioglitazone initiation changes in UPCR, TIS, and serum albumin levels were analyzed using Wilcoxon Signed Rank tests. Numbers of hospitalizations pre-pioglitazone and post-pioglitazone initiation were analyzed and compared using Poisson distributions. Statistical significance was assessed at both the 0.05 and 0.10 levels. All analyses were conducted using SPSS software ver. 26 (IBM, Armonk, NY, USA).
# children with NS [2] = assay: Renal survival, renal function, remission and prednisone taper on pioglitazone
# Text: as §1
# children with NS [3] = assay: Hospitalizations, edema, hypoglycemia and side effects on pioglitazone
# Text: as §1
# [4] = Patient 1 (Responder), pre-PIO 8.5
# [5] = Patient 1 (Responder), vs 0-1 mo pre-PIO
# [6] = Patient 2 (Responder), pre-PIO 6
# [7] = Patient 2 (Responder), vs 0-1 mo pre-PIO
# [8] = Patient 3 (Responder), pre-PIO 11.2
# [9] = Patient 3 (Responder), vs 0-1 mo pre-PIO
# [10] = Patient 5 (Non-responder), pre-PIO 0.46
# [11] = Patient 5 (Non-responder), vs 0-1 mo pre-PIO
# [12] = Patient 6 (Responder), pre-PIO 2.16
# [13] = Patient 6 (Responder), vs 0-1 mo pre-PIO
# [14] = Patient 7 (Non-responder), pre-PIO 7.5
# [15] = Patient 7 (Non-responder), vs 0-1 mo pre-PIO
# [16] = Patient 8 (Responder), pre-PIO 4.66
# [17] = Patient 8 (Responder), vs 0-1 mo pre-PIO
# [18] = mean of 5 Responders, pre-PIO 6.50
# [19] = mean of 5 Responders, vs 0-1 mo pre-PIO
smiles,measurement,setting,value
CCc1ccc(CCOc2ccc(CC3SC(=O)NC3=O)cc2)nc1 (centres unmarked) [pioglitazone],"UPCR in Responders, range",children with NS [1]; 5-7 months post-pioglitazone,0.06 to 0.5 mg/mg
same,Patients with prompt and significant reductions in proteinuria (Responders),"children with NS [1]; Five of 8 pioglitazone-treated patients, UPCR decrease 0-1 mo pre- to 0-1 mo post-pioglitazone",63%
same,Post-PIO UPCR (0-1 mo; mg/mg),children with NS [1]; [4],4 mg/mg
same,Post-PIO UPCR (5-7 mo; mg/mg),children with NS [1]; [4],0.2 mg/mg
same,% UPCR Reduction (0-1 mo),children with NS [1]; [5],53% and 52.9%
same,% UPCR Reduction (5-7 mo),children with NS [1]; [5],98% and 97.6%
same,Post-PIO UPCR (0-1 mo; mg/mg),children with NS [1]; [6],2 mg/mg
same,Post-PIO UPCR (5-7 mo; mg/mg),children with NS [1]; [6],0.12 mg/mg
same,% UPCR Reduction (0-1 mo),children with NS [1]; [7],67% and 66.7%
same,% UPCR Reduction (5-7 mo),children with NS [1]; [7],98%
same,Post-PIO UPCR (0-1 mo; mg/mg),children with NS [1]; [8],6.4 mg/mg
same,Post-PIO UPCR (5-7 mo; mg/mg),children with NS [1]; [8],0.5 mg/mg
same,% UPCR Reduction (0-1 mo),children with NS [1]; [9],43% and 42.9%
same,% UPCR Reduction (5-7 mo),children with NS [1]; [9],96% and 95% and 95.5%
same,UPCR increase,"children with NS [1]; Patient 4 (Non-responder), over the next 1 month",133%
same,Post-PIO UPCR (0-1 mo; mg/mg),"children with NS [1]; Patient 4 (Non-responder), pre-PIO 28.8, urine obtained soon after IV albumin infusion",67.0 mg/mg and 67 mg/mg
same,% UPCR Reduction (0-1 mo),"children with NS [1]; Patient 4 (Non-responder), vs 0-1 mo pre-PIO",−133%
same,UPCR increase,"children with NS [1]; Patient 5 (Non-responder), 1-month post-PIO",139%
same,increase in proteinuria (UPCR),"children with NS [1]; Patient 5 (Non-responder), 5-7 months post-pioglitazone",24%
same,Post-PIO UPCR (0-1 mo; mg/mg),children with NS [1]; [10],1.1 mg/mg
same,Post-PIO UPCR (5-7 mo; mg/mg),children with NS [1]; [10],0.57 mg/mg
same,% UPCR Reduction (0-1 mo),children with NS [1]; [11],−139%
same,% UPCR Reduction (5-7 mo),children with NS [1]; [11],−23.9%
same,Post-PIO UPCR (0-1 mo; mg/mg),children with NS [1]; [12],1.09 mg/mg
same,Post-PIO UPCR (5-7 mo; mg/mg),children with NS [1]; [12],0.11 mg/mg
same,% UPCR Reduction (0-1 mo),children with NS [1]; [13],50% and 49.5%
same,% UPCR Reduction (5-7 mo),children with NS [1]; [13],95% and 94.9%
same,increase in proteinuria (UPCR),"children with NS [1]; Patient 7 (Non-responder), 5-7 months post-pioglitazone",77%
same,UPCR increase,"children with NS [1]; Patient 7 (Non-responder), over the next 1 month",13%
same,Post-PIO UPCR (0-1 mo; mg/mg),children with NS [1]; [14],8.5 mg/mg
same,Post-PIO UPCR (5-7 mo; mg/mg),children with NS [1]; [14],13.3 mg/mg
same,% UPCR Reduction (0-1 mo),children with NS [1]; [15],−13.3%
same,% UPCR Reduction (5-7 mo),children with NS [1]; [15],77.3%
same,Post-PIO UPCR (0-1 mo; mg/mg),children with NS [1]; [16],0.08 mg/mg
same,Post-PIO UPCR (5-7 mo; mg/mg),children with NS [1]; [16],0.06 mg/mg
same,% UPCR Reduction (0-1 mo),children with NS [1]; [17],98% and 98.3%
same,% UPCR Reduction (5-7 mo),children with NS [1]; [17],99% and 98.7%
same,"Post-PIO UPCR (0-1 mo; mg/mg), Mean (SEM)",children with NS [1]; [18],2.7 mg/mg and 2.71 mg/mg
same,"Post-PIO UPCR (5-7 mo; mg/mg), Mean (SEM)",children with NS [1]; [18],0.2 mg/mg and 0.20 mg/mg
same,"% UPCR Reduction (0-1 mo), Mean (SEM)",children with NS [1]; [19],62% and 62.1%
same,"% UPCR Reduction (5-7 mo), Mean (SEM)",children with NS [1]; [19],97%
same,"Post-PIO UPCR (5-7 mo; mg/mg), Mean (SEM)",children with NS [1]; mean of Non-responders (Patient 4 ESRD),6.94 mg/mg
same,"% UPCR Reduction (5-7 mo), Mean (SEM)",children with NS [1]; mean of Non-responders (Patient 4 NA),−50.6%
same,"Post-PIO UPCR (0-1 mo; mg/mg), Mean (SEM)","children with NS [1]; mean of Non-responders, pre-PIO 12.3",25.5 mg/mg
same,"% UPCR Reduction (0-1 mo), Mean (SEM)","children with NS [1]; mean of Non-responders, vs 0-1 mo pre-PIO",−95.0%
same,"UPCR reduction in Responders, range",children with NS [1]; within the first month of pioglitazone treatment,43-98%
same,"UPCR in Responders, range","children with NS [1]; within the first month of pioglitazone treatment, pre range 2.2-11.2",0.1 to 6.4 mg/mg
same,"Renal Survival, % survival",children with NS [2]; 3 Non-responders,33.3%
same,"Renal Survival, % survival",children with NS [2]; 5 Responders,100%
same,Renal Survival,children with NS [2]; Patient 1 (Responder),yes
same,renal function,"children with NS [2]; Patient 1, during pioglitazone treatment",maintained normal renal function
same,Renal Survival,children with NS [2]; Patient 2 (Responder),yes
same,renal function,"children with NS [2]; Patient 2, during pioglitazone treatment",maintained normal renal function
same,PRED dose after taper,"children with NS [2]; Patient 2, orally QD, from 30 mg/d",5 mg
same,remission,"children with NS [2]; Patient 2, pioglitazone 15 mg orally QD for 16 weeks",achieved full remission
same,Renal Survival,children with NS [2]; Patient 3 (Responder),yes
same,Prednisone dose after decrease,"children with NS [2]; Patient 3, from 40 mg/d",20 mg/day
same,Renal Survival,"children with NS [2]; Patient 4 (Non-responder), cFSGS, AKI at presentation",no
same,renal function,"children with NS [2]; Patient 4, during pioglitazone treatment",renal function continued to worsen
same,Renal Survival,children with NS [2]; Patient 5 (Non-responder),yes
same,NS relapses,"children with NS [2]; Patient 5, on pioglitazone for 2.5 years",continued to have NS relapses
same,Renal Survival,children with NS [2]; Patient 6 (Responder),yes
same,serum creatinine,"children with NS [2]; Patient 6, on MMF and pioglitazone",0.90 mg/dL
same,Renal Survival,children with NS [2]; Patient 7 (Non-responder),no
same,renal function,"children with NS [2]; Patient 7, pre-pioglitazone eGFR 44 ml/min/1.73 m^2",remained stable during the 6 months of pioglitazone treatment
same,Renal Survival,children with NS [2]; Patient 8 (Responder),yes
same,renal function,"children with NS [2]; Patient 8, during pioglitazone treatment",renal function remained normal
same,remission,"children with NS [2]; Patient 8, following 5-7 months",remained in complete remission
same,PRED dose after taper,"children with NS [2]; Patient 8, from 25 mg/d",10 mg/day
same,required hospitalizations,"children with NS [3]; 5 Responders, post-pioglitazone, 11 pre-pioglitazone",none
same,side effects attributable to pioglitazone,"children with NS [3]; Patient 1, 7-month PIO treatment, 15 then 30 mg QD",No side effects attributable to pioglitazone were noted
same,side effects attributable to pioglitazone,"children with NS [3]; Patient 2, 4-month treatment, 15 mg QD",no side effects attributable to pioglitazone noted
same,side effects attributable to pioglitazone,"children with NS [3]; Patient 3, 19-month course",No side effects attributable to pioglitazone were noted
same,side effects attributable to pioglitazone,"children with NS [3]; Patient 4, 3 weeks of treatment, 7.5 mg QD",no side effects attributable to pioglitazone were noted
same,side effects attributable to pioglitazone,"children with NS [3]; Patient 5, 2.5 years, 45 mg QD",No side effects attributable to pioglitazone were noted
same,side effects attributable to pioglitazone,"children with NS [3]; Patient 6, 5-year course, 30 mg QD",No side effects attributable to pioglitazone were noted
same,side effects (reason for stopping pioglitazone),"children with NS [3]; Patient 7, 6 months, 15 then 30 mg QD","concerns of possible association with new-onset bruising, which resolved"
same,side effects attributable to pioglitazone,"children with NS [3]; Patient 8, 30-week course, 30 mg QD",No side effects attributable to pioglitazone were noted
same,reductions in hospitalizations for IV albumin infusions and diuresis,children with NS [3]; Responders,100%
same,children with worsening edema after pioglitazone introduction,children with NS [3]; all 8 patients,0%
same,hospitalizations for IV albumin infusions to manage NS-related edema,"children with NS [3]; all 8 patients, 5-7 months post-pioglitazone, 13 in the 5-7 months pre-pioglitazone",1
same,adverse events attributable to pioglitazone,"children with NS [3]; all patients, collective 136 months of drug exposure",no patients experienced any adverse events attributable to pioglitazone
same,pioglitazone-related hypoglycemia,"children with NS [3]; all patients, observation period",no children with NS were noted to have pioglitazone-related hypoglycemia
